Assay results reported in patent US20100150842A1, “Method and Kit for Detecting Resistance in Living Organisms” (priority 2007, published 2010).
Read-outs that look alike come from different tables or passages of the source.

Experiments:
[1] = test system: Stellaria media SU-susceptible and SU-resistant biotype; assay: Biomarker pattern (HPPC) in extracts of Stellaria media exposed to iodosulfuron; type: in vivo; details: for number of type B biomarkers detected in extracts of susceptible plants: 50% of recommended field dose
Protocol: A SU-susceptible and SU-resistant biotype of Stellaria media was cultivated outdoors in 2-litre pots. At the 4-5 leaf stage the plants were exposed to iodosulfuron (IOD) applied in mixture with a methylated vegetable oil (Renol). Iodosulfuron was applied at 50% of the recommended field dose. The plants were harvested 4, 7 and 14 days after exposure. Immediately after harvest the plants were frozen and freeze-dried.
Freeze-dried plant material (50 mg per ml of 75% ethanol) was extracted in ultrasonic bath with ice for two hours. The extracts were centrifuged before analysis.
A biomarker pattern was detected as phytochemical changes in plant extracts. A comparison of the extracts of an un-treated susceptible (Biotype 1) and an untreated resistant (Biotype 2) of Stellaria media is shown as biomarkers type A. See further description in Example 3.
A comparison of extracts of the same biotypes exposed to iodosulfuron is shown as biomarkers type B. See further description in Example 3.
High Performance Planar Chromatography (HPPC)-systems were used to detect the two types of biomarkers.

[2] = test system: Stellaria media sensitive and target resistant biotypes; assay: TLC analysis of Stellaria media extracts, unexposed and exposed to Hussar OD; type: in vivo
From the text: S0=ID 1 Biotype 1 sensitive control S1=ID 1 Biotype 1 sensitive exposed to 1N Hussar OD+0.5 I/ha Renol R10=ID 9 Biotype 2 Target resistant control R11=ID 9 Biotype 2 Target resistant exposed to 1N Hussar OD+0.5 I/ha Renol R110=ID 9 Biotype 2 Target resistant exposed to 10N Hussar OD+0.5 I/ha Renol R20=ID 102 Biotype 3 Target resistant exposed control R21=ID 102 Biotype 3 Target resistant exposed to 1N Hussar OD+0.5 I/ha Renol R210=ID 102 Biotype 3 Target resistant exposed to 10N Hussar OD+0.5 I/ha Renol
Et=100 mg freeze-dried plant material in 4.00 ml 80% Ethanol extracted for 20 min. in ultrasonic bath (Réalisation Etudes Ultra Son (REUS), 16, allée des Cystes, 06390 Contes, France).
Aq=50 mg freeze-dried plant material in 4.00 ml 80% Ethanol extracted for 20 min. in ultrasonic bath (Réalisation Etudes Ultra Son (REUS), 16, allée des Cystes, 06390 Contes, France)+200 it EtOH after filtration.
The extracts (10 μl) were applicated on Silicagel 60 Merck 1.05721 (10×20 cm) or (5 μl) Cellulose aluminium Merck 1.05552.0001 with together with the reference T=1 0/00× in ethanol using a TLC Automatic TLC Sampler III.

[3] = test system: Papaver rhoeas sensitive and target resistant biotypes; assay: TLC analysis of Papaver rhoeas extracts, unexposed and exposed to Hussar OD; type: in vivo
From the text: S0=ID 150 Biotype 4 sensitive control S1=ID 150 Biotype 4 sensitive exposed to 1N Hussar OD+0.5 I/ha Renol R0=ID 397 Biotype 5 Target resistant control R1=ID 397 Biotype 5 Target resistant exposed to 1N Hussar OD+0.5 I/ha Renol R10=ID 397 Biotype 5 Target resistant exposed to 10N Hussar OD+0.5 I/ha Renol R20=ID 248 Biotype 6 Target resistant exposed control R21=ID 248 Biotype 6 Target resistant exposed to 1N Hussar OD+0.5 I/ha Renol R210=ID 248 Biotype 6 Target resistant exposed to 10N Hussar OD+0.5 I/ha Renol R30=ID 406 Biotype 12 Target resistant exposed control R31=ID 406 Biotype 12 Target resistant exposed to 1N Hussar OD+0.5 I/ha Renol R310=ID 406 Biotype 12 Target resistant exposed to 10N Hussar OD+0.5 I/ha Renol
100 mg freeze-dried plant material (Papaver rhoeas (Papaveraceae) in 4.00 ml 80% Ethanol extracted for 20 min. in ultrasonic bath (Realisation Etudes Ultra Son (REUS), 16, allée des Cystes, 06390 Contes, France). The extract was filtered through GELMAN GHP Agrodisc 13 0.45 μm.
The extracts (20 μl) were applicated on Silicagel 60 Merck 1.05721 (10×20 cm) or (10 μl) Cellulose aluminium Merck 1.05552.0001 together with the reference 1 0/00 papaverin in ethanol using a TLC Automatic TLC Sampler III.
TLC 5) Plate: Cellulose; Solvent: 2% Acetic acid in Water. The results can be seen in FIG. 7.
Detection: UV 366 nm after derivatisation with NEU+PEG is seen in FIG. 7b.

[4] = test system: SU-resistant Stellaria media biotypes; assay: Resistance factors of SU-resistant Stellaria media biotypes to herbicides (ratio of ED50 values); type: in vivo
From the text: The sensitivity to a specific herbicide of each biotype can be tested by determining the amount of herbicide needed to reduce the biomass to 50% of the non-treated plants of the same biotype. When comparing sensitivity among biotypes the “resistance factor” can be used to characterise the sensitivity.
The “resistance factor” is used to characterize the extent of susceptibility and resistance of a species to a herbicide. Resistance factors are typically represented as a ration of ED50 values for different biotypes.
The resistance factor is the ratio of the ED50 value of the resistant and susceptible biotypes.
Results from a study with 6 SU-resistant (Sulfonylurea-resistant) Stellaria media biotypes are included.

[5] = test system: fish and aquatic invertebrates; details: water bodies; cited from earlier work
[6] = cited from earlier work

COc1nc(C)nc(NC(=O)NS(=O)(=O)c2cc(I)ccc2C(=O)O)n1 [iodosulfuron]
number of type B biomarkers detected in extracts of susceptible plants ([1]; 7 and 14 days after exposure): 7 | number of type B biomarkers detected in extracts of susceptible plants ([1]; 4 days after exposure): Five | unique biomarker pattern in extracts ([1]; SU-resistant Stellaria media biotype): absent | unique biomarker pattern in extracts ([1]; susceptible Stellaria media biotype, 4, 7 and 14 days after exposure): detected | new flavonoid in plant extract (TLC) ([2]; Stellaria media sensitive plant exposed): present | new flavonoid in plant extract (TLC) ([2]; Stellaria media target resistant biotypes, only at very high exposure concentrations (10N)): not present | new flavonoid in plant extract (TLC) ([3]; Papaver rhoeas biotypes of the target resistant plants): not present | new flavonoid in plant extract (TLC) ([3]; Papaver rhoeas sensitive plant exposed): present

COc1ncc(F)c2nc(S(=O)(=O)Nc3c(F)cccc3F)nn12 [florasulam]
cross-resistance of SU-resistant biotypes [4]: could not be confirmed

CCC(CC)Nc1c([N+](=O)[O-])cc(C)c(C)c1[N+](=O)[O-] [Pendimethalin]
toxicity to fish [5]: toxic

O=C(O)CNCP(=O)(O)O [Glyphosate]
half-life ([6]; degraded by rapid microbial action): 3-5 weeks

N#Cc1cc(Br)c(O)c(Br)c1 [Bromoxynil]
half-life ([6]; most soil types): two
